We go through 1 molecule from patent publication US12168639B2 (priority 2013, dated 2024).

Structures are written as SMILES.

For data set [1] the following is noted: rat, in vivo.
Data set [2] has as its system rats. The conditions noted are these: rat, in vivo.
For data set [3], the system named is rats. Conditions: rat, in vivo. The source holds these as a separate data set.
The test system of data set [4] is whole-cell brain preparations. The data set is classed as cell-based.
Data set [5] concerns Isolated mitochondria from liver. Type of data set: cell-based, rat.
Data set [6] relates to Isolated mitochondria from brain. The data set is classed as cell-based, rat.
For data set [7], the system named is rats fed a high-fat diet and sucrose supplemented (5%) drinking water. Conditions: rat, in vivo.

As for `O=[N+]([O-])c1ccc(O)c([N+](=O)[O-])c1` [DNP, 2,4-dinitrophenol], in data set [1], the “peak DNP liver concentrations” value was around 60 µM, the “peak plasma DNP concentration” value was around 120 µM, the “peak plasma DNP concentrations” value is around 380 µM and the “time of peak plasma concentrations of DNP after injection” value is 1 h. In addition, in the data set on rats [2], the “ratio of effective to toxic dose” value is listed as 0.2 and the “toxic threshold of chronic treatment” value was found to be 1 mg/kg. In the data set with rats [3], the “lowest dose where systemic toxicities may be observed” value is reported as 25 mg/kg; the “mortality acutely after IP injection” value is on record as “rapid dose-dependent mortality”; the “rectal temperature after IP injection” value is given as “large, dose-dependent increase”. Besides, the “doses causing increase in rectal temperatures and mortality” value in the data set on rats [3] (ip) was “above 10 mg/kg”. Further, the uncoupling result in data set [4] is “neither DNP nor DNPME was found to uncouple”. In addition, in data set [5], the “mitochondrial uncoupling (oxygen consumption)” value is on record as “uncoupled both tissues”. In addition, the “mitochondrial uncoupling (oxygen consumption)” value in data set [6] is on record as “uncoupled both tissues”. Moreover, the “lowest dose effective at lowering liver TAG” value in data set [7] is listed as 5 mg/kg.
